{
  "source": "ChEMBL document CHEMBL5143732",
  "about": "(J Med Chem, 2022)",
  "key": {"Cytochrome P450 2D6": {"molecular_target": "Cytochrome P450 2D6 (Homo sapiens, UniProt P10635)", "sequence (P10635 whole entry)": "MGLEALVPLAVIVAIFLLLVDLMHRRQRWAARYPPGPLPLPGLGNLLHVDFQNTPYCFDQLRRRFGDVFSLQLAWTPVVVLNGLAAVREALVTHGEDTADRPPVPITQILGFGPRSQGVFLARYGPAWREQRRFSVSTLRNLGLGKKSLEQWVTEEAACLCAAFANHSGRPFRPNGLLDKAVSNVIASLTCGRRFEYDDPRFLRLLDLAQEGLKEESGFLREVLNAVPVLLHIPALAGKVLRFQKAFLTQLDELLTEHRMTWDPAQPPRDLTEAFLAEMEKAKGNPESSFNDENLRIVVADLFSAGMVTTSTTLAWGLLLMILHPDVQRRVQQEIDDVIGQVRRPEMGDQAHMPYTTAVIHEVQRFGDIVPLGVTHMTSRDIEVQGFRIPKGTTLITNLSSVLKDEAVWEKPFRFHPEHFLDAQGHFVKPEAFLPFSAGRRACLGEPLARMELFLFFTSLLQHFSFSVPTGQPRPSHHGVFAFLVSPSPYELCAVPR", "assay": "Inhibition of CYP2D6 in human liver microsome using dextromethorphan as substrate preincubated for 10 mins followed by NADPH addition and measured after 15 mins by LC-MS/MS analysis", "type": "ADME, microsomes"}, "Cytochrome P450 3A4": {"molecular_target": "Cytochrome P450 3A4 (Homo sapiens, UniProt P08684)", "sequence (P08684 whole entry)": "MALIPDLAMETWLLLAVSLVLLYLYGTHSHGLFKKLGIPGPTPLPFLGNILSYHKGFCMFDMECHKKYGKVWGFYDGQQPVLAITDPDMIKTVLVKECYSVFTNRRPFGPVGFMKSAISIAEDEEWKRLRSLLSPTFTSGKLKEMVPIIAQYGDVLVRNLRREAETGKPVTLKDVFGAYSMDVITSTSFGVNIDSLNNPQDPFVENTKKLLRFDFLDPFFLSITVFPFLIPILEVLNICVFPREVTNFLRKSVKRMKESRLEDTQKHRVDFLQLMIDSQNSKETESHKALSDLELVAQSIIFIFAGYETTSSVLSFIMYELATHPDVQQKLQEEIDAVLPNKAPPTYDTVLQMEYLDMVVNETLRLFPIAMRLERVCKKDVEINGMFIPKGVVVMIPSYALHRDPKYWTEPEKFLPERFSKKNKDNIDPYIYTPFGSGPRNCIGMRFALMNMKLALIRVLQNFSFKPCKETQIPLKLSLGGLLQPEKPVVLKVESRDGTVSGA", "assay": "Inhibition of CYP3A4 in human liver microsome using midazolam and testostrone as substrate preincubated for 10 mins followed by NADPH addition and measured after 15 mins by LC-MS/MS analysis", "type": "ADME, microsomes"}, "Cytochrome P450 2C19": {"molecular_target": "Cytochrome P450 2C19 (Homo sapiens, UniProt P33261)", "sequence (P33261 whole entry)": "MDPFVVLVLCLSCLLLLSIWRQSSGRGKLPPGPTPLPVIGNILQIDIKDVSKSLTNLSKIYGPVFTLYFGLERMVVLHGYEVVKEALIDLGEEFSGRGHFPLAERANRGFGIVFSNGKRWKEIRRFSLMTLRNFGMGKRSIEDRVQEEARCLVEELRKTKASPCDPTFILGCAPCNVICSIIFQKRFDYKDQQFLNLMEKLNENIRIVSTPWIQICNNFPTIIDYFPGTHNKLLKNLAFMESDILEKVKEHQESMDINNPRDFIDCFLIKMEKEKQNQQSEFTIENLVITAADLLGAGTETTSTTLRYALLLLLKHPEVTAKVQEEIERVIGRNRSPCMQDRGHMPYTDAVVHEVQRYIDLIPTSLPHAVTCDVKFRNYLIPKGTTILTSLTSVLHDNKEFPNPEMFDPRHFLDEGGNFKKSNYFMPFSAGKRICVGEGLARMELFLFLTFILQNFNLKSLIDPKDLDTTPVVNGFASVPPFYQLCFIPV", "assay": "Inhibition of CYP2C19 in human liver microsome using mephenytoin as substrate preincubated for 10 mins followed by NADPH addition and measured after 15 mins by LC-MS/MS analysis", "type": "ADME, microsomes"}, "[1]": {"assay": "Aggregation property of the compound in PBS at 7.4 pH assessed as dimerization at 5.4 uM by UV/vis double-beam spectrometer analysis", "type": "physicochemical", "conditions": "buffer, pH 7.4, 5.4 µM; call rule not given here"}, "[2]": {"molecular_target": "Voltage-gated inwardly rectifying potassium channel KCNH2 (Homo sapiens, UniProt Q12809)", "sequence (Q12809 whole entry)": "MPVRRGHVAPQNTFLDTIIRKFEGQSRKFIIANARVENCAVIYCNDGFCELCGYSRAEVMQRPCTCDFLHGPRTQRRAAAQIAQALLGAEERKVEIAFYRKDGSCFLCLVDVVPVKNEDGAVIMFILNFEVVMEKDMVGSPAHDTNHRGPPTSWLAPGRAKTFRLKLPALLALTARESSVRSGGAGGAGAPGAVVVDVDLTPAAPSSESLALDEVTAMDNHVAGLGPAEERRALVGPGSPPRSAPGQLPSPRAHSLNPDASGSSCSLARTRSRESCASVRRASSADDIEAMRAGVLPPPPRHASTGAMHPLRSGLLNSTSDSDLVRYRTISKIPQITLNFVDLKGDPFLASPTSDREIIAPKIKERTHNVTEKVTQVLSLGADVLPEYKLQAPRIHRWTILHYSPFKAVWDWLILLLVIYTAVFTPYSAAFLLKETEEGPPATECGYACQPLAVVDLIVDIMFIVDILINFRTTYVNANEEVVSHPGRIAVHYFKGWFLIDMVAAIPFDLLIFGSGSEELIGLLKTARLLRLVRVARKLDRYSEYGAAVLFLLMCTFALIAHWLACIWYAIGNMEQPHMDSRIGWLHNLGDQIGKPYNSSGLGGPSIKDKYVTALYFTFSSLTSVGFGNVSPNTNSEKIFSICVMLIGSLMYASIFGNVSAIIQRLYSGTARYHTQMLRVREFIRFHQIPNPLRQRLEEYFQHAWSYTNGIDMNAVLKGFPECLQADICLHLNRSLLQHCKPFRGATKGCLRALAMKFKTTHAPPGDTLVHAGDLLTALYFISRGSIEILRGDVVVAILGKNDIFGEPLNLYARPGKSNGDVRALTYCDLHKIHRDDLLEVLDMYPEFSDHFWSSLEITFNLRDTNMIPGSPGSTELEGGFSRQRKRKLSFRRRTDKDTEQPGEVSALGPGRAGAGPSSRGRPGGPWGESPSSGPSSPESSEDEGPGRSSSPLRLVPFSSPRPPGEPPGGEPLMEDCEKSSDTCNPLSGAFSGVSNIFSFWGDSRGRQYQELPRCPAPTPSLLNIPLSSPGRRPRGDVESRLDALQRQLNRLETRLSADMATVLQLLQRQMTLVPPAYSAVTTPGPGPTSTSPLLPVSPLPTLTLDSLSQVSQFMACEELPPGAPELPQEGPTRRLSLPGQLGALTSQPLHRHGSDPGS", "assay": "Inhibition of hERG expressed in CHO cells at -80 mV holding potential by automated patch clamp method", "type": "toxicity, cell-based"}, "Cytochrome P450 2C9": {"molecular_target": "Cytochrome P450 2C9 (Homo sapiens, UniProt P11712)", "sequence (P11712 whole entry)": "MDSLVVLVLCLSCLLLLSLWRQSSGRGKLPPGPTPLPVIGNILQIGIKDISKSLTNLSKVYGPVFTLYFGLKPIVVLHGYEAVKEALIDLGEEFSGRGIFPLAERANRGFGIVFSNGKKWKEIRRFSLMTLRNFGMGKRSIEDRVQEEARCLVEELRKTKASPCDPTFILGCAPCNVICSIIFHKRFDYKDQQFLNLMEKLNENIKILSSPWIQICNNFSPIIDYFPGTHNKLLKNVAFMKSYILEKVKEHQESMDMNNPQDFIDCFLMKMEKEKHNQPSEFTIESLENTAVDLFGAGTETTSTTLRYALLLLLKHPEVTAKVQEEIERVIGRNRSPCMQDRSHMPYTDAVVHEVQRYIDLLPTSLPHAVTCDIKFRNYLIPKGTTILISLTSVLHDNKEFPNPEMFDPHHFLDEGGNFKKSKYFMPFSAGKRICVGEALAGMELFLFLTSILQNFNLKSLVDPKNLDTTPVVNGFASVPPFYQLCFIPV", "assay": "Inhibition of CYP2C9 in human liver microsome using tolbutamide as substrate preincubated for 10 mins followed by NADPH addition and measured after 15 mins by LC-MS/MS analysis", "type": "ADME, microsomes"}, "[3]": {"assay": "Aqueous solubility of compound at pH 6.8", "type": "physicochemical", "conditions": "buffer"}, "Cytochrome P450 1A2": {"molecular_target": "T1, Cytochrome P450 1A2 (Homo sapiens, UniProt P05177)", "T1 sequence (P05177 whole entry)": "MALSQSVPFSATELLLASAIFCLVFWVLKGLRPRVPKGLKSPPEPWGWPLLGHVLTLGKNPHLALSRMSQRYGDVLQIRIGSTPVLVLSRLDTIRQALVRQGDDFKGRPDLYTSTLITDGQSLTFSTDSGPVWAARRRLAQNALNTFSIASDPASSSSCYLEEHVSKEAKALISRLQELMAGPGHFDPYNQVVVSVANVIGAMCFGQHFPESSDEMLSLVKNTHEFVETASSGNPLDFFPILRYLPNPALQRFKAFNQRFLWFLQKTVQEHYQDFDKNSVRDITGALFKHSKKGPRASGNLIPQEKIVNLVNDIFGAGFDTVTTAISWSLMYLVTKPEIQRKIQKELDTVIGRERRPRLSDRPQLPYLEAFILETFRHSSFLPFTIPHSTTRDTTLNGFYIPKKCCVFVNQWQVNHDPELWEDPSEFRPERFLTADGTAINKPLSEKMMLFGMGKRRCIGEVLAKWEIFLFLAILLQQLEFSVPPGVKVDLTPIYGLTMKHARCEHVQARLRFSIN", "assay": "Inhibition of CYP1A2 in human liver microsome using Phenacetin as substrate preincubated for 10 mins followed by NADPH addition and measured after 15 mins by LC-MS/MS analysis", "type": "ADME, microsomes"}, "[4]": {"assay": "Acute toxicity in SPF ICR mouse assessed as polypnea upto 7.5 mg/kg, iv administered on day 1 and measured for 14 days", "type": "organism-based", "conditions": "in vivo, 336 h, time 14 day"}, "Pichia kudriavzevii [5]": {"test_system": "Pichia kudriavzevii", "assay": "Antifungal activity against Candida krusei ATCC 6258 assessed as inhibition of fungal growth measured after 48 hrs by CLSI based agar dilution method", "type": "functional"}, "Nakaseomyces glabratus": {"test_system": "Nakaseomyces glabratus", "assay": "Potency index, ratio of AMD MIC to test compound MIC for antifungal activity against Candida glabrata", "type": "functional"}, "[6]": {"assay": "Observed volume of distribution at steady state in ICR (CD-1) mouse at 1 mg/kg, iv measured upto 24 hrs", "type": "ADME, organism-based", "conditions": "in vivo, read-out: Vdss"}, "Candida albicans [7]": {"test_system": "Candida albicans", "assay": "Antifungal activity against Candida albicans assessed as inhibition of fungal growth measured after 48 hrs by CLSI based agar dilution method", "type": "functional"}, "[8]": {"assay": "Acute toxicity in SPF ICR mouse assessed as polypnea at 15 to 30 mg/kg, iv administered on day 1 and measured for 14 days", "type": "organism-based", "conditions": "in vivo, 336 h, dose 15-30 mg/kg, time 14 day"}, "[9]": {"assay": "Observed MRT infinity in ICR (CD-1) mouse at 1 mg/kg, iv measured upto 24 hrs", "type": "ADME, organism-based", "conditions": "in vivo"}, "[10]": {"assay": "Observed AUC infinity in ICR (CD-1) mouse at 1 mg/kg, iv measured upto 24 hrs", "type": "ADME, organism-based", "parameters": "dose 1 mg/kg, time < 24 hrs, route iv", "conditions": "ICR (CD-1), in vivo"}, "Cryptococcus neoformans [11]": {"test_system": "Cryptococcus neoformans", "assay": "Potency index, ratio of AMD MIC to test compound MIC for antifungal activity against Cryptococcus neoformans", "type": "functional"}, "Pichia kudriavzevii [12]": {"test_system": "Pichia kudriavzevii", "assay": "Potency index, ratio of AMD MIC to test compound MIC for antifungal activity against Candida krusei", "type": "functional"}, "[13]": {"assay": "Acute toxicity in SPF ICR mouse assessed as prostration upto 7.5 mg/kg, iv administered on day 1 and measured for 14 days", "type": "organism-based", "conditions": "in vivo, 336 h, time 14 day"}, "Candida parapsilosis [14]": {"test_system": "Candida parapsilosis", "assay": "Antifungal activity against Candida parapsilosis assessed as inhibition of fungal growth measured after 48 hrs by CLSI based agar dilution method", "type": "functional", "conditions": "Lodderomyces parapsilosis"}, "[15]": {"assay": "Hemolytic activity in human RBC measured after 1 hr", "type": "toxicity, cell-based, Erythrocyte", "conditions": "red blood cells (erythrocytes)"}, "Candida tropicalis [16]": {"test_system": "Candida tropicalis", "assay": "Potency index, ratio of AMD MIC to test compound MIC for antifungal activity against Candida tropicalis", "type": "functional"}, "Candida albicans [17]": {"test_system": "Candida albicans", "assay": "Potency index, ratio of AMD MIC to test compound MIC for antifungal activity against Candida albicans", "type": "functional"}, "Candida tropicalis [18]": {"test_system": "Candida tropicalis", "assay": "Antifungal activity against Candida tropicalis assessed as inhibition of fungal growth measured after 48 hrs by CLSI based agar dilution method", "type": "functional"}, "Pichia kudriavzevii [19]": {"test_system": "Pichia kudriavzevii", "assay": "Antifungal activity against Candida krusei assessed as inhibition of fungal growth measured after 48 hrs by CLSI based agar dilution method", "type": "functional"}, "[20]": {"assay": "Acute toxicity in iv dosed SPF ICR mouse assessed as maximum tolerated measured for 14 days", "type": "organism-based", "conditions": "in vivo, dose 30 mg/kg, time 14 day"}, "Candida parapsilosis [21]": {"test_system": "Candida parapsilosis", "assay": "Potency index, ratio of AMD MIC to test compound MIC for antifungal activity against Candida parapsilosis", "type": "functional"}, "[22]": {"assay": "AUClast in ICR (CD-1) mouse at 1 mg/kg, iv measured upto 24 hrs", "type": "ADME, organism-based", "parameters": "dose 1 mg/kg, time < 24 hrs, route iv", "conditions": "ICR (CD-1), in vivo"}, "[23]": {"assay": "Elimination half life in ICR (CD-1) mouse at 1 mg/kg, iv measured upto 24 hrs", "type": "ADME, organism-based", "conditions": "in vivo, read-out: beta t1/2 (converted)"}, "[24]": {"assay": "Therapeutic index ratio of MTD for acute toxicity in iv dosed SPF ICR mouse to ED50 for antifungal activity against Candida albicans ATTCC 14053 infected in SPF kunming mouse", "type": "organism-based", "conditions": "in vivo, read-out: TI"}, "[25]": {"assay": "Observed clearance in ICR (CD-1) mouse at 1 mg/kg, iv measured upto 24 hrs", "type": "ADME, organism-based", "parameters": "dose 1 mg/kg, time < 24 hrs, route iv", "conditions": "in vivo, route iv, dose 1 mg/kg, time < 24 hrs, read-out: CL"}, "Cryptococcus neoformans [26]": {"test_system": "Cryptococcus neoformans", "assay": "Antifungal activity against Cryptococcus neoformans ATCC 32609 assessed as inhibition of fungal growth measured after 48 hrs by CLSI based agar dilution method", "type": "functional"}, "[27]": {"assay": "Acute toxicity in SPF ICR mouse assessed as prostration at 15 to 30 mg/kg, iv administered on day 1 and measured for 14 days", "type": "organism-based", "conditions": "in vivo, 336 h, dose 15-30 mg/kg, time 14 day"}, "Candida albicans [28]": {"test_system": "Candida albicans", "assay": "Antifungal activity against Candida albicans ATTCC 14053 infected in SPF Kunming mouse assessed as increase in mouse survival pre-infected for 1 hr followed by compound addition and measured after 7 to 14 days", "type": "functional", "conditions": "time 7-14 day"}},
  "data": [
    {"smiles": "CNCC(=O)N[C@@H]1[C@H](O)[C@H](O[C@H]2/C=C/C=C/C=C/C=C/C=C/C=C/C=C/[C@H](C)[C@@H](O)[C@@H](C)[C@H](C)OC(=O)C[C@H](O)C[C@H](O)CC[C@@H](O)[C@H](O)C[C@H](O)C[C@]3(O)C[C@H](O)[C@@H](C(=O)NCCN)[C@H](C2)O3)O[C@H](C)[C@H]1O.NC(CCC(=O)O)C(=O)O", "values": [
      {"measurement": "IC50", "setting": "Cytochrome P450 2D6", "result": "> 50", "unit": "µM"},
      {"measurement": "IC50", "setting": "Cytochrome P450 3A4", "result": 36.9, "unit": "µM"},
      {"measurement": "IC50", "setting": "Cytochrome P450 2C19", "result": "> 50", "unit": "µM"},
      {"measurement": "Activity", "setting": "[1]", "result": "Active"},
      {"measurement": "IC50", "setting": "[2]", "result": "> 13.3", "unit": "µM"},
      {"measurement": "IC50", "setting": "Cytochrome P450 2C9", "result": "> 50", "unit": "µM"},
      {"measurement": "solubility", "setting": "[3]", "result": 106, "unit": "mg/mL"},
      {"measurement": "IC50", "setting": "Cytochrome P450 1A2", "result": "> 25", "unit": "µM"}
    ]},
    {"smiles": "CNCC(=O)N[C@@H]1[C@H](O)[C@H](O[C@H]2/C=C/C=C/C=C/C=C/C=C/C=C/C=C/[C@H](C)[C@@H](O)[C@@H](C)[C@H](C)OC(=O)C[C@H](O)C[C@H](O)CC[C@@H](O)[C@H](O)C[C@H](O)C[C@]3(O)C[C@H](O)[C@@H](C(=O)NCCN)[C@H](C2)O3)O[C@H](C)[C@H]1O", "values": [
      {"measurement": "Activity", "setting": "[4]", "result": "Non-Toxic"},
      {"measurement": "MIC", "setting": "Pichia kudriavzevii [5]", "result": 0.125, "unit": "µg/mL"},
      {"measurement": "Ratio", "setting": "Nakaseomyces glabratus", "result": 66},
      {"measurement": "Vd", "setting": "[6]", "result": 0.917, "unit": "L/kg"},
      {"measurement": "MIC", "setting": "Candida albicans [7]", "result": "< 0.008", "unit": "µg/mL"},
      {"measurement": "Activity", "setting": "[8]", "result": "Toxic"},
      {"measurement": "MRT inf", "setting": "[9]", "result": 29.5, "unit": "h"},
      {"measurement": "AUC(0-inf)", "setting": "[10]", "result": 31800, "unit": "ng·h/mL"},
      {"measurement": "Ratio", "setting": "Cryptococcus neoformans [11]", "result": 125},
      {"measurement": "Ratio", "setting": "Pichia kudriavzevii [12]", "result": 8},
      {"measurement": "Activity", "setting": "[13]", "result": "Non-Toxic"},
      {"measurement": "MIC", "setting": "Candida parapsilosis [14]", "result": 0.03, "unit": "µg/mL"},
      {"measurement": "HC50 at 1 h", "setting": "[15]", "result": 105, "unit": "µM"},
      {"measurement": "Ratio", "setting": "Candida tropicalis [16]", "result": 33},
      {"measurement": "Ratio", "setting": "Candida albicans [17]", "result": 60},
      {"measurement": "MIC", "setting": "Candida tropicalis [18]", "result": 0.03, "unit": "µg/mL"},
      {"measurement": "MIC", "setting": "Pichia kudriavzevii [19]", "result": 0.25, "unit": "µg/mL"},
      {"measurement": "MTD at 336 h", "setting": "[20]", "result": 7.5, "unit": "mg/kg"},
      {"measurement": "Ratio", "setting": "Candida parapsilosis [21]", "result": 16},
      {"measurement": "AUC(0-t) at 24 h", "setting": "[22]", "result": 17600, "unit": "ng·h/mL"},
      {"measurement": "half-life", "setting": "[23]", "result": 20.5, "unit": "h"},
      {"measurement": "selectivity ratio", "setting": "[24]", "result": 35.7},
      {"measurement": "solubility", "setting": "[3]", "result": 0.0585, "unit": "mg/mL"},
      {"measurement": "clearance", "setting": "[25]", "result": 0.53, "unit": "mL/min/kg"},
      {"measurement": "MIC", "setting": "Cryptococcus neoformans [26]", "result": "< 0.008", "unit": "µg/mL"},
      {"measurement": "Activity", "setting": "[27]", "result": "Toxic"},
      {"measurement": "ED50", "setting": "Candida albicans [28]", "result": 0.21, "unit": "mg/kg"}
    ]}
  ]
}
